Species on record: Rattus norvegicus
Experiment: DrugMatrix - Regimen: Daily Repeat
Type: toxicity, organism-based, Sprague-Dawley
Design: regimen Daily Repeat, gender Male, age 6-8 weeks
Settings: in vivo, po, route oral GAVAGE, […]; for ABSOLUTE BASOPHIL / ABSOLUTE EOSINOPHIL / ABSOLUTE LYMPHOCYTE / ABSOLUTE MONOCYTE / ABSOLUTE SEGMENTED NEUTROPHIL / BASOPHIL / EOSINOPHIL / ERYTHROCYTE COUNT / HEMATOCRIT / HEMOGLOBIN / LEUKOCYTE COUNT / LYMPHOCYTE / MEAN CORPUSCULAR HEMOGLOBIN / MEAN CORPUSCULAR HEMOGLOBIN CONCENTRATION / MEAN CORPUSCULAR VOLUME / MONOCYTE / NEUTROPHIL / NUCLEATED RED BLOOD CELLS / PLATELET COUNT: tissue Blood; for ALANINE AMINOTRANSFERASE / ALBUMIN / ALKALINE PHOSPHATASE / ASPARTATE AMINOTRANSFERASE / BLOOD UREA NITROGEN / CARBON DIOXIDE / CHLORIDE / CHOLESTEROL / CREATINE PHOSPHOKINASE / CREATININE / GLUCOSE / LACTATE DEHYDROGENASE / LIPASE / PHOSPHORUS / POTASSIUM / SODIUM / TOTAL BILIRUBIN / TOTAL PROTEIN / URIC ACID: tissue Plasma
[1] = 20 mg/kg, 72 h, dose level Low, time 3 day
[2] = 20 mg/kg, 120 h, dose level Low, time 5 day
[3] = 62 mg/kg, 72 h, dose level High, time 3 day
[4] = 62 mg/kg, 120 h, dose level High, time 5 day

Compound: CCCSc1ccc2nc(NC(=O)OC)[nH]c2c1 [ALBENDAZOLE]
- ABSOLUTE BASOPHIL [1]: 0 CELLS/uL
- ABSOLUTE EOSINOPHIL [1]: 0 CELLS/uL
- ABSOLUTE LYMPHOCYTE [1]: 12808 CELLS/uL
- ABSOLUTE MONOCYTE [1]: 184.67 CELLS/uL
- ABSOLUTE SEGMENTED NEUTROPHIL [1]: 1574 CELLS/uL
- BASOPHIL [1]: 0%
- EOSINOPHIL [1]: 0%
- ERYTHROCYTE COUNT [1]: 5.37 x10E6/uL
- HEMATOCRIT [1]: 33.33%
- HEMOGLOBIN [1]: 13.47 G/DL
- LEUKOCYTE COUNT [1]: 14.57 x10E3/uL
- LYMPHOCYTE [1]: 88.67%
- MEAN CORPUSCULAR HEMOGLOBIN [1]: 25.17 pg
- MEAN CORPUSCULAR HEMOGLOBIN CONCENTRATION [1]: 40.47 G/DL
- MEAN CORPUSCULAR VOLUME [1]: 62.17 fL
- MONOCYTE [1]: 1.33%
- NEUTROPHIL [1]: 10%
- NUCLEATED RED BLOOD CELLS [1]: 0.33 /100WBC
- PLATELET COUNT [1]: 1157.33 x10E3/uL
- ALANINE AMINOTRANSFERASE [1]: 56.33 u/L
- ALBUMIN [1]: 3.6 G/DL
- ALKALINE PHOSPHATASE [1]: 430 u/L
- ASPARTATE AMINOTRANSFERASE [1]: 87.33 u/L
- BLOOD UREA NITROGEN [1]: 13.33 mg/dL
- CARBON DIOXIDE [1]: 24.67 mmol/L
- CHLORIDE [1]: 101 MEQ/L
- CHOLESTEROL [1]: 64 mg/dL
- CREATINE PHOSPHOKINASE [1]: 390.67 u/L
- CREATININE [1]: 0.21 mg/dL
- GLUCOSE [1]: 220.67 mg/dL
- LACTATE DEHYDROGENASE [1]: 112.33 u/L
- LIPASE [1]: 10.67 u/L
- PHOSPHORUS [1]: 12.2 mg/dL
- POTASSIUM [1]: 6.27 MEQ/L
- SODIUM [1]: 141.23 MEQ/L
- TOTAL BILIRUBIN [1]: 0.2 mg/dL
- TOTAL PROTEIN [1]: 5.2 G/DL
- URIC ACID [1]: 2.23 mg/dL
- ABSOLUTE BASOPHIL [2]: 0 CELLS/uL
- ABSOLUTE EOSINOPHIL [2]: 69.33 CELLS/uL
- ABSOLUTE LYMPHOCYTE [2]: 7738 CELLS/uL
- ABSOLUTE MONOCYTE [2]: 149.67 CELLS/uL
- ABSOLUTE SEGMENTED NEUTROPHIL [2]: 776.33 CELLS/uL
- BASOPHIL [2]: 0%
- EOSINOPHIL [2]: 0.67%
- ERYTHROCYTE COUNT [2]: 4.93 x10E6/uL
- HEMATOCRIT [2]: 31.3%
- HEMOGLOBIN [2]: 12.87 G/DL
- LEUKOCYTE COUNT [2]: 8.73 x10E3/uL
- LYMPHOCYTE [2]: 89.33%
- MEAN CORPUSCULAR HEMOGLOBIN [2]: 26.07 pg
- MEAN CORPUSCULAR HEMOGLOBIN CONCENTRATION [2]: 41.1 G/DL
- MEAN CORPUSCULAR VOLUME [2]: 63.4 fL
- MONOCYTE [2]: 1.67%
- NEUTROPHIL [2]: 8.33%
- NUCLEATED RED BLOOD CELLS [2]: 0 /100WBC
- PLATELET COUNT [2]: 1525.33 x10E3/uL
- ALANINE AMINOTRANSFERASE [2]: 53.67 u/L
- ALBUMIN [2]: 4.03 G/DL
- ALKALINE PHOSPHATASE [2]: 375.33 u/L
- ASPARTATE AMINOTRANSFERASE [2]: 79 u/L
- BLOOD UREA NITROGEN [2]: 15 mg/dL
- CARBON DIOXIDE [2]: 26 mmol/L
- CHLORIDE [2]: 102.67 MEQ/L
- CHOLESTEROL [2]: 67 mg/dL
- CREATINE PHOSPHOKINASE [2]: 225.67 u/L
- CREATININE [2]: 0.21 mg/dL
- GLUCOSE [2]: 161 mg/dL
- LACTATE DEHYDROGENASE [2]: 141 u/L
- LIPASE [2]: 11.67 u/L
- PHOSPHORUS [2]: 10.97 mg/dL
- POTASSIUM [2]: 5.64 MEQ/L
- SODIUM [2]: 141.93 MEQ/L
- TOTAL BILIRUBIN [2]: 0.1 mg/dL
- TOTAL PROTEIN [2]: 5.5 G/DL
- URIC ACID [2]: 1.37 mg/dL
- ABSOLUTE BASOPHIL [3]: 0 CELLS/uL
- ABSOLUTE EOSINOPHIL [3]: 0 CELLS/uL
- ABSOLUTE LYMPHOCYTE [3]: 10254.67 CELLS/uL
- ABSOLUTE MONOCYTE [3]: 0 CELLS/uL
- ABSOLUTE SEGMENTED NEUTROPHIL [3]: 712 CELLS/uL
- BASOPHIL [3]: 0%
- EOSINOPHIL [3]: 0%
- ERYTHROCYTE COUNT [3]: 5.64 x10E6/uL
- HEMATOCRIT [3]: 34.47%
- HEMOGLOBIN [3]: 13.47 G/DL
- LEUKOCYTE COUNT [3]: 10.97 x10E3/uL
- LYMPHOCYTE [3]: 94%
- MEAN CORPUSCULAR HEMOGLOBIN [3]: 24 pg
- MEAN CORPUSCULAR HEMOGLOBIN CONCENTRATION [3]: 39.13 G/DL
- MEAN CORPUSCULAR VOLUME [3]: 61.27 fL
- MONOCYTE [3]: 0%
- NEUTROPHIL [3]: 6%
- NUCLEATED RED BLOOD CELLS [3]: 0 /100WBC
- PLATELET COUNT [3]: 1007.33 x10E3/uL
- ALANINE AMINOTRANSFERASE [3]: 44 u/L
- ALBUMIN [3]: 4.13 G/DL
- ALKALINE PHOSPHATASE [3]: 381 u/L
- ASPARTATE AMINOTRANSFERASE [3]: 99.67 u/L
- BLOOD UREA NITROGEN [3]: 11 mg/dL
- CARBON DIOXIDE [3]: 27.33 mmol/L
- CHLORIDE [3]: 101.33 MEQ/L
- CHOLESTEROL [3]: 99 mg/dL
- CREATINE PHOSPHOKINASE [3]: 278 u/L
- CREATININE [3]: 0.13 mg/dL
- GLUCOSE [3]: 161.33 mg/dL
- LACTATE DEHYDROGENASE [3]: 198.67 u/L
- LIPASE [3]: 11.67 u/L
- PHOSPHORUS [3]: 10.53 mg/dL
- POTASSIUM [3]: 5.98 MEQ/L
- SODIUM [3]: 141.53 MEQ/L
- TOTAL BILIRUBIN [3]: 0.17 mg/dL
- TOTAL PROTEIN [3]: 5.8 G/DL
- URIC ACID [3]: 1.43 mg/dL
- ABSOLUTE BASOPHIL [4]: 0 CELLS/uL
- ABSOLUTE EOSINOPHIL [4]: 0 CELLS/uL
- ABSOLUTE LYMPHOCYTE [4]: 7019.67 CELLS/uL
- ABSOLUTE MONOCYTE [4]: 23.67 CELLS/uL
- ABSOLUTE SEGMENTED NEUTROPHIL [4]: 190 CELLS/uL
- BASOPHIL [4]: 0%
- EOSINOPHIL [4]: 0%
- ERYTHROCYTE COUNT [4]: 5.03 x10E6/uL
- HEMATOCRIT [4]: 31%
- HEMOGLOBIN [4]: 12.5 G/DL
- LEUKOCYTE COUNT [4]: 7.23 x10E3/uL
- LYMPHOCYTE [4]: 97%
- MEAN CORPUSCULAR HEMOGLOBIN [4]: 24.9 pg
- MEAN CORPUSCULAR HEMOGLOBIN CONCENTRATION [4]: 40.33 G/DL
- MEAN CORPUSCULAR VOLUME [4]: 61.77 fL
- MONOCYTE [4]: 0.33%
- NEUTROPHIL [4]: 2.67%
- NUCLEATED RED BLOOD CELLS [4]: 0 /100WBC
- PLATELET COUNT [4]: 1425 x10E3/uL
- ALANINE AMINOTRANSFERASE [4]: 29.33 u/L
- ALBUMIN [4]: 4.03 G/DL
- ALKALINE PHOSPHATASE [4]: 247.67 u/L
- ASPARTATE AMINOTRANSFERASE [4]: 66.33 u/L
- BLOOD UREA NITROGEN [4]: 12.33 mg/dL
- CARBON DIOXIDE [4]: 24.33 mmol/L
- CHLORIDE [4]: 101.33 MEQ/L
- CHOLESTEROL [4]: 90.67 mg/dL
- CREATINE PHOSPHOKINASE [4]: 237.67 u/L
- CREATININE [4]: 0.11 mg/dL
- GLUCOSE [4]: 141.33 mg/dL
- LACTATE DEHYDROGENASE [4]: 106.33 u/L
- LIPASE [4]: 11 u/L
- PHOSPHORUS [4]: 11.33 mg/dL
- POTASSIUM [4]: 6.31 MEQ/L
- SODIUM [4]: 141.93 MEQ/L
- TOTAL BILIRUBIN [4]: 0.27 mg/dL
- TOTAL PROTEIN [4]: 5.37 G/DL
- URIC ACID [4]: 1.77 mg/dL
